# Assay results: ChEMBL document CHEMBL3822378, “Click-based synthesis and antitubercular evaluation of dibenzofuran tethered thiazolyl-1,2,3-triazolyl acetamides” (Bioorg Med Chem Lett, 2016)
# Experiments:
# [1] = system: Mycobacterium tuberculosis; assay: Antitubercular activity against Mycobacterium tuberculosis H37Rv ATCC 27294 after 28 days by two-fold agar dilution method; type: functional; settings: H37Rv ATCC 27294, 672 h
# [2] = system: Mycobacterium tuberculosis; assay: Antitubercular activity against Mycobacterium tuberculosis H37Rv by microplate alamar blue assay; type: functional
# [3] = Cytotoxicity against mouse RAW264.7 cells assessed as growth inhibition at 50 ug/ml after 72 hrs by MTT assay; type: cell-based; settings: read-out: GI
# [4] = system: Staphylococcus epidermidis; assay: Antibacterial activity against Staphylococcus epidermidis 2D866 by two-fold agar dilution method; type: functional
SMILES,MIC [1] [µg/mL],"inhibition at 72 h, 50 ug/ml [3] [%]",also measured
Cc1ccc(-c2cn(CC(=O)Nc3nc(-c4ccc5oc6ccccc6c5c4)cs3)nn2)cc1,50,,
CC[C@@H](CO)NCCN[C@@H](CC)CO [ETHAMBUTOL],3.13,,
O=C(Cn1cc(C2CC2)nn1)Nc1nc(-c2ccc3oc4ccccc4c3c2)cs1,50,,
O=C(Cn1cc(-c2ccc(F)cc2F)nn1)Nc1nc(-c2ccc3oc4ccccc4c3c2)cs1,25,,
CC(=O)C1=C(O)C=C2Oc3c(C(C)=O)c(O)c(C)c(O)c3C2(C)C1=O (stereo not drawn),,,MIC [2]: 12.5 µg/mL
CCCCCCCCCCCCc1cn(CC(=O)Nc2nc(-c3ccc4oc5ccccc5c4c3)cs2)nn1,3.12,26.5,
CC(C)(C)c1ccc(-c2cn(CC(=O)Nc3nc(-c4ccc5oc6ccccc6c5c4)cs3)nn2)cc1,12.5,30.2,
O=C(Cn1cc(CCCO)nn1)Nc1nc(-c2ccc3oc4ccccc4c3c2)cs1,25,,
O=C(Cn1cc(CCc2ccccc2)nn1)Nc1nc(-c2ccc3oc4ccccc4c3c2)cs1,> 50,,
CCCCCc1cn(CC(=O)Nc2nc(-c3ccc4oc5ccccc5c4c3)cs2)nn1,12.5,20.4,
CCCCCC(=O)c1c(OC)c(Cl)c2oc3c(Cl)c(OC)c(Cl)c(O)c3c2c1O,,,MIC [4]: 0.39 µg/mL
NC(=O)c1cnccn1 [PYRAZINAMIDE],50,,
CCCc1cn(CC(=O)Nc2nc(-c3ccc4oc5ccccc5c4c3)cs2)nn1,50,,
O=C(Cn1cc(-c2cc(C(F)(F)F)cc(C(F)(F)F)c2)nn1)Nc1nc(-c2ccc3oc4ccccc4c3c2)cs1,25,,
CCCCCc1ccc(-c2cn(CC(=O)Nc3nc(-c4ccc5oc6ccccc6c5c4)cs3)nn2)cc1,> 50,,
CCCCCCc1cn(CC(=O)Nc2nc(-c3ccc4oc5ccccc5c4c3)cs2)nn1,1.56,28.6,
O=C(Cn1cc(C2(O)CCCC2)nn1)Nc1nc(-c2ccc3oc4ccccc4c3c2)cs1,12.5,22.2,
COc1cccc(-c2cn(CC(=O)Nc3nc(-c4ccc5oc6ccccc6c5c4)cs3)nn2)c1,6.25,18.1,
NNC(=O)c1ccncc1 [ISONIAZID],0.1,,
O=C(Cn1cc(-c2ccc(-c3ccccc3)cc2)nn1)Nc1nc(-c2ccc3oc4ccccc4c3c2)cs1,> 50,,
O=C(Cn1cc(-c2ccccc2)nn1)Nc1nc(-c2ccc3oc4ccccc4c3c2)cs1,3.12,20.4,
